# Key:
# [1] = target: ALK [WT] (Homo sapiens, UniProt Q9UM73); assay: Kinase inhibition assay, ALK [WT]; assay type: biochemical
# Protocol: (§1) Compound preparation: The test compounds were dissolved in DMSO to make 20 mM stock solutions. The compounds were diluted in DMSO to 0.1 mM (a dilution with 100 times the final concentration) before use, and a 3-fold series gradient dilution with 11 concentrations was made. Dilutions with 4 times of the final concentration were prepared by diluting with buffer when dosing.
# (§2) Kinase assay: after preparing the buffer solution, the enzyme was mixed with pre-diluted compounds with different concentrations, and placed at room temperature for 30 minutes in duplicate. The corresponding substrate and ATP were added thereto and reacted at room temperature for 60 minutes (both a negative and a positive control were set). After the reaction, antibody was added for detection, and after incubation at room temperature for 60 minutes, Evnvision detection was carried out, and data was collected. Data was analyzed and fit according to XLfit5 software. IC50 was calculated by the following formula: (IC50=[(ABS test−ABS begin)/(ABS control−ABS begin)]×100).
# [2] = target: ALK [L1196M] (Homo sapiens, UniProt Q9UM73, L1196M); assay: Kinase inhibition assay, ALK [L1196M]; assay type: biochemical
# Sequence of ALK [L1196M] (Q9UM73 19-1620 L1196M): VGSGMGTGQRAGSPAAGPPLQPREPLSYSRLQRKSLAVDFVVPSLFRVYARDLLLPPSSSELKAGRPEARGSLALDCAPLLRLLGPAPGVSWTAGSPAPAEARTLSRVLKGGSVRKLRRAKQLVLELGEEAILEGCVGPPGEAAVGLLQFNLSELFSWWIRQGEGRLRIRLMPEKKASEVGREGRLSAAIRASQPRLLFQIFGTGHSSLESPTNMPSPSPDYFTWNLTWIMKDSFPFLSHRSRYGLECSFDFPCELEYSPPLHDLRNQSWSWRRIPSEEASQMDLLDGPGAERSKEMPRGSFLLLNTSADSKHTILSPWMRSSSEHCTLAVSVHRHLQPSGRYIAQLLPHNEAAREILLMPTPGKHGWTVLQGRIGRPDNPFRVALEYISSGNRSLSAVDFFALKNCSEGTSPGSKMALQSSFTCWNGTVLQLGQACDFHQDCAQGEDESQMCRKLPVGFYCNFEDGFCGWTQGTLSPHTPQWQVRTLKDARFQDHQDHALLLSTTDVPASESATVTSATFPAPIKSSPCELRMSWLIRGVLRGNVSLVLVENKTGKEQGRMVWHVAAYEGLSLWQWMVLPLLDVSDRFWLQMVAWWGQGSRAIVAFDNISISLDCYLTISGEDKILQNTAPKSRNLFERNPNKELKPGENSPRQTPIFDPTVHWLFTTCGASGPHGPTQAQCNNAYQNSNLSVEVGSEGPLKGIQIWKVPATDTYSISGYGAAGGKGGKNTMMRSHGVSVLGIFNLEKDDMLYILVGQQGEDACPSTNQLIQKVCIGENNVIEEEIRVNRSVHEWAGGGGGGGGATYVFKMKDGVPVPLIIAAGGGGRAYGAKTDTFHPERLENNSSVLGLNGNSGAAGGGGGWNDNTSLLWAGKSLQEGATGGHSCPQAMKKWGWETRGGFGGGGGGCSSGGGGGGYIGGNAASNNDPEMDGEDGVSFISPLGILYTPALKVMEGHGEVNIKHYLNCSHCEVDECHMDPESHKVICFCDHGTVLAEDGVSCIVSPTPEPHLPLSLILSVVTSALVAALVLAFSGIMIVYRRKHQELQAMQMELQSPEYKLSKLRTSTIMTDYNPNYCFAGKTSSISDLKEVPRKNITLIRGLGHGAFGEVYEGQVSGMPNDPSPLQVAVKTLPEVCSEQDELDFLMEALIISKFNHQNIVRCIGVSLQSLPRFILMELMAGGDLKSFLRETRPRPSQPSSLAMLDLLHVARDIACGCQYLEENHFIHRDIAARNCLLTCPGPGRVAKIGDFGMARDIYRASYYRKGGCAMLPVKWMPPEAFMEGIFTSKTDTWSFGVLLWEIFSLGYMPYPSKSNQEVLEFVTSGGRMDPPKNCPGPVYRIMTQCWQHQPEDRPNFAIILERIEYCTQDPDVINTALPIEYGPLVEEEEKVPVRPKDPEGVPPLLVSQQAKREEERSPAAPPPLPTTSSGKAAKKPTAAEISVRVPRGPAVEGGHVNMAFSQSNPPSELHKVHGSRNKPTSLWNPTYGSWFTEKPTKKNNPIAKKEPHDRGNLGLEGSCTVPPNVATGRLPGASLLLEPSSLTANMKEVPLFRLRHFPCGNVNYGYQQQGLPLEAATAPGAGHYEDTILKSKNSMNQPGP
# Protocol: as §1, §2
# [3] = system: BaF3 parental; assay: Cytotoxicity test (CellTiter-Glo), BaF3 parental; assay type: cell-based; settings: Mus musculus, 72 hours, read-out: IC50(nM) parental (Ba/F3)
# Protocol: (§3) The in vitro anti-proliferative activity of the compounds of the present disclosure against three types of cells that are cultured in vitro was tested by CellTiter-Glo method.
# (§4) Cell lines: BaF3 parental; BaF3 [EML4-ALK] (From WuXi PharmaTech) and BaF3 [EMF4-AFK F1196M] (From WuXi PharmaTech); wherein, BaF3 parental was cultured in RPMI1640 medium containing 10 ng/ml IL-3, 10% fetal bovine serum, 100 U/ml penicillin, and 100 μg/ml streptomycin, BaF3 [EMF4-AFK] and BaF3 [EMF4-AFK F1196M] were cultured in RPMI1640 medium containing 10% fetal bovine serum, 100 U/ml penicillin, and 100 μg/ml streptomycin.
# (§5) Reagents and materials: RPMI-1640 (GIBCO, Cat. No. A10491-01); fetal bovine serum (GIBCO, Cat. No. 10099141); 0.25% trypsin-EDTA (GIBCO, Cat. No. 25200); penicillin-streptomycin, liquid (GIBCO, Cat. No. 15140-122); DMSO (Sigma, Cat. No. D2650); CellTiter-Glo Test Kit (Promega, Cat. No. G7572), and 96-well plate (Corning, Cat. No. 3365).
# (§6) 1. The test compounds were dissolved in DMSO to make stock solutions and subjected to a series gradient dilution to give solutions with 10-fold working concentration.
# (§7) 2. The cells in the logarithmic growth phase were diluted with the culture solution to adjust to the specific cell concentration, 90 μi of cell suspension was added to the 96-well plate to make the cell density reach the specified concentration. The plate was incubated in a incubator at 37° C., containing 5% carbon dioxide gas overnight.
# (§8) 3. 10 μl drug solutions were added to each well of the 96-well plate inoculated with cells. 10 concentrations of the compounds were tested starting from the highest concentration of 20 μM with a 3-fold series gradient dilution in duplicate.
# (§9) 4. After continuously cultured for 72 hours, the cells were detected by CellTiter-Glo for the cell viability. The dose-effect curve was made using GraphPad Prism software and IC50 was calculated.
# [4] = target: T1, BaF3 [EML4-ALK] (Homo sapiens, UniProt Q9UM73); assay: Cytotoxicity test (CellTiter-Glo), BaF3 [EML4-ALK]; assay type: cell-based; settings: 72 hours, CellTiter-Glo; read-out: IC50(nM) ALK (Ba/F3)
# T1 construct: IC50(nM) ALK (Ba/F3); other: 72 hours, CellTiter-Glo; BaF3 [EML4-ALK]; fused on or other part: Q9HC35 (Echinoderm microtubule-associated protein-like 4)
# T1 sequence (Q9UM73 whole entry, change not shown, the tested form may be a part): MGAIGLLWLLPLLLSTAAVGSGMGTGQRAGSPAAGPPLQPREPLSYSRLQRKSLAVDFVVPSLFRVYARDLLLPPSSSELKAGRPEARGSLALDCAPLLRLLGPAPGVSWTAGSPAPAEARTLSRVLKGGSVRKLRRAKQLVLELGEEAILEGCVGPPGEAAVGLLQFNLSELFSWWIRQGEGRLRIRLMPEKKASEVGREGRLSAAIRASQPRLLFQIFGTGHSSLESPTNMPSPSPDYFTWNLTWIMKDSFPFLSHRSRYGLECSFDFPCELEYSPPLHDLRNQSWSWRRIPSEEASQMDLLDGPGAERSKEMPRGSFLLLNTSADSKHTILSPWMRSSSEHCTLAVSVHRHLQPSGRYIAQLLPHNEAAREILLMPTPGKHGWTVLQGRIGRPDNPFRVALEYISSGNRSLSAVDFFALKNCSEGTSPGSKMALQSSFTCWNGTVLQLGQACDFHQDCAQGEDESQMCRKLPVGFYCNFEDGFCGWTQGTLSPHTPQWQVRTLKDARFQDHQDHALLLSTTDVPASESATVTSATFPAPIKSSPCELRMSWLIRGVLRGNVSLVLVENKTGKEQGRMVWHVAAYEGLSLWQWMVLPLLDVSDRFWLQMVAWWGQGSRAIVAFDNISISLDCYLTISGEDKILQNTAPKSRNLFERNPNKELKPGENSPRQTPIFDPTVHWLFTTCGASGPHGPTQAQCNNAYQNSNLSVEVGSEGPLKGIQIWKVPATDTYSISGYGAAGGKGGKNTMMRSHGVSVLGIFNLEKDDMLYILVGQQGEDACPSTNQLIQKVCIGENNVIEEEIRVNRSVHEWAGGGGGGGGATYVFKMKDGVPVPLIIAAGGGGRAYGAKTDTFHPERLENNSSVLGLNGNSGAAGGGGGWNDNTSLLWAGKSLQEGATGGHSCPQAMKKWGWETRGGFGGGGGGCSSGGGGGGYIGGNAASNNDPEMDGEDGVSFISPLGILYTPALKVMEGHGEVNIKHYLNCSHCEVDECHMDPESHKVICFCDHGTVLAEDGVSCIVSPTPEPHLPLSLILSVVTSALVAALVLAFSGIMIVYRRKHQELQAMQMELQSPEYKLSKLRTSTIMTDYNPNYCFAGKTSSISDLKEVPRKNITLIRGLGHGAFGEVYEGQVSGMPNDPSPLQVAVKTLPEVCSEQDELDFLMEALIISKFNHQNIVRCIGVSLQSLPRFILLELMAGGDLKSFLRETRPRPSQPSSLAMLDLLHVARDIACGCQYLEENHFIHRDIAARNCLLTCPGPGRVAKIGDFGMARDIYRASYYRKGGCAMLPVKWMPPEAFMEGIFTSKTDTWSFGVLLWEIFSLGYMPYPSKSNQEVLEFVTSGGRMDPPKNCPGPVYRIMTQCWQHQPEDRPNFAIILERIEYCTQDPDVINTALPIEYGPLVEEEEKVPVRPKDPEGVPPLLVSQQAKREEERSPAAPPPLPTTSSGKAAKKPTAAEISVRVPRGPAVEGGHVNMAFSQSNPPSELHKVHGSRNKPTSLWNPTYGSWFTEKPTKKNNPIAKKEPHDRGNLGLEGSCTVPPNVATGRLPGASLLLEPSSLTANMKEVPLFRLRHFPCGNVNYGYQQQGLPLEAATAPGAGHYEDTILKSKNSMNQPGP
# Protocol: as §3, §4, §5, §6, §7, §8, §9
# [5] = system: BaF3 [EML4-ALK]; assay: Cytotoxicity test (CellTiter-Glo), BaF3 [EML4-ALK]; assay type: cell-based; settings: Ba/F3 cells
# Protocol: as §3, §4, §5, §6, §7, §8, §9
# [6] = target: T2, ALK[L1196M] (Ba/F3) (Homo sapiens, UniProt Q9UM73, L1196M, cells depend on it); assay: Cytotoxicity test (CellTiter-Glo), BaF3 EML4-ALK L1196M; assay type: cell-based; settings: 72 hours, CellTiter-Glo; read-out: IC50(nM) ALK[L1196M] (Ba/F3)
# T2 construct: IC50(nM) ALK[L1196M]; (Ba/F3); other: 72 hours, CellTiter-Glo; BaF3 [EMF4-AFK F1196M]; fused on or other part: Q9HC35 (Echinoderm microtubule-associated protein-like 4)
# T2 sequence (Q9UM73 whole entry L1196M, the tested form may be a part): as the sequence (Q9UM73 whole entry, change not shown, the tested form may be a part) above, with L1196M counted along it
# Protocol: as §3, §4, §5, §6, §7, §8, §9
# [7] = system: ALK[L1196M] (Ba/F3); assay: as above; assay type: cell-based; settings: Ba/F3 cells
# Protocol: as §3, §4, §5, §6, §7, §8, §9
# [8] = Metabolic stability in human liver microsomes; assay type: in vitro ADME; settings: pH 7.4, 1 μM compound, 0.5 mg/mL protein; for microsomal CLint at 1 μM: read-out: CLint (uL/min/mg), Human liver microsome experiment; for half-life at 1 μM: read-out: t1/2 (min), Human liver microsome experiment
# Protocol: (§10) Experiments in microsomes: Human liver microsomes: 0.5 mg/mL, Xenotech; Rat liver microsomes: 0.5 mg/mL, Xenotech; Coenzyme (NADPH/NADH): 1 mM, Sigma Life Science; Magnesium chloride: 5 mM, 100 mM phosphate buffer (pH 7.4).
# (§11) Preparation of stock solution: Powder of the example compounds was accurately weighed and dissolved in DMSO to 5 mM. Preparation of phosphate buffer (100 mM, pH7.4): A pre-formulated 0.5M potassium dihydrogen phosphate (150 mL) was mixed with 0.5M dibasic potassium phosphate (700 mL). The pH of the mixture was adjusted to 7.4 with 0.5M dibasic potassium phosphate solution. The mixture was diluted 5-fold with ultrapure water before use, and magnesium chloride was added to obtain a phosphate buffer (100 mM) containing 100 mM potassium phosphate, 3.3 mM magnesium chloride, pH7.4. A NADPH regeneration system solution (containing 6.5 mM NADP, 16.5 mM G-6-P, 3 U/mL G-6-PD, 3.3 mM magnesium chloride) was prepared and placed on wet ice prior to use. Preparation of stop solution: acetonitrile solution containing 50 ng/mL propranolol hydrochloride and 200 ng/mL tolbutamide (internal standard). 25057.5 μL of phosphate buffer (pH 7.4) was taken into a 50 mL centrifuge tube, to which 812.5 μL human liver microsomes were added, and mixed to obtain a liver microsome dilution solution with a protein concentration of 0.625 mg/mL. 25057.5 μL of phosphate buffer (pH 7.4) was taken into a 50 mL centrifuge tube, to which 812.5 μL SD rat liver microsomes were added, and mixed to obtain a liver microsome dilution solution with a protein concentration of 0.625 mg/mL.
# (§12) Incubation of the samples: The stock solution of the respective compound was respectively diluted to 0.25 mM with an aqueous solution containing 70% acetonitrile, and used as a working solution, ready for use. 398 μL of the dilution solution of human liver microsomes or rat liver microsome were added to a 96-well incubation plate (N=2), respectively, and 2 μL of 0.25 mM working solution was added and mixed.
# (§13) Metabolic stability assay: 300 μL of pre-chilled stop solution was added to each well of a 96-well deep well plate and placed on ice as a stop plate. The 96 well incubation plate and NADPH regeneration system were placed in a 37° C. water bath box, shaken at 100 rpm and pre-incubated for 5 min. 80 μL of incubation solution was taken out from each well of the incubation plate and added to the stop plate, mixed, and replenished with 20 μL of NADPH regeneration system solution as a 0-min sample. 80 μL of NADPH regeneration system solution was added to each well of the incubation plate to start the reaction and start counting. […] Separately, 100 μL of the reaction solution was taken at 10, 30, and 90 min reaction, respectively, added to a stop plate, and vortexed for 3 minutes to terminate the reaction. The stop plate was centrifuged at 5000×g at 4° C. for 4 min. 100 μL of the supernatant was added to a 96-well plate to which 100 μL of distilled water was previously added, mixed, and analyzed by LC-MS/MS.
# (§14) Data analysis: The peak areas of the corresponding compound and internal standard were detected by LC-MS/MS system, and the ratio of the peak area of the compound to the internal standard was calculated.
# [9] = Metabolic stability in rat liver microsomes; assay type: in vitro ADME; settings: SD, pH 7.4, 1 μM compound, 0.5 mg/mL protein; for microsomal CLint at 1 μM: read-out: CLint (uL/min/mg), Rat liver microsome experiment; for half-life at 1 μM: read-out: t1/2 (min), Rat liver microsome experiment
# Protocol: as §10, §11, §12, §13, §14
# Sequence of ALK [WT] (Q9UM73 19-1620): as the sequence (Q9UM73 19-1620 L1196M) above, with M1178L counted along it
SMILES,IC50 [1] [nM],IC50 [2] [nM],IC50 [3] [nM],GI50 [4] [nM],Selectivity parental/ALK [5],GI50 [6] [nM],Selectivity parental/ALK[L1196M] [7],microsomal CLint at 1 μM [8] [µL/min/mg],half-life at 1 μM [8] [min],microsomal CLint at 1 μM [9] [µL/min/mg],half-life at 1 μM [9] [min]
"COc1cc(C(C)N(C)C)ccc1Nc1ncc(Cl)c(Nc2ccccc2P(C)(C)=O)n1 (stereo not drawn) [Example 8, (2-((5-chloro-2-((4-(1-(dimethylamino)ethyl)-2-methoxyphenyl)amino)pyrimidin-4-yl)amino)phenyl)dimethylphosphine oxide]",2 to 5,2 to 5,≥ 1000,25 to 50,100 to 200,100 to 200,<50,24.6,56.3,28.8,48.2
"CNC(C)c1ccc(Nc2ncc(Cl)c(Nc3ccccc3P(C)(C)=O)n2)c(OC)c1 (stereo not drawn) [Example 9, (2-((5-chloro-2-((4-(1-(methylamino)ethyl)-2-methoxyphenyl)amino)pyrimidin-4-yl)amino)phenyl)dimethylphosphine oxide]",2 to 5,2 to 5,≥ 1000,50 to 100,50 to 100,200 to 1000,<50,11.3,123,9.9,140
"COc1cc(C(C)(C)CN)ccc1Nc1ncc(Cl)c(Nc2ccccc2P(C)(C)=O)n1 [Example 10, (2-((2-((4-(1-amino-2-methylpropan-2-yl)-2-methoxyphenyl)amino)-5-chloropyrimidin-4-yl)amino)phenyl)dimethylphosphine oxide]",2 to 5,2 to 5,≥ 1000,25 to 50,100 to 200,100 to 200,<50,25.2,55,15.1,92
